Test results from the supplement of paper PMC6045584.
± gives the standard deviation of the averaged measurements.

How the values were obtained:
BLEOMYCIN = compound: Cc1c(N)nc([C@H](CC(N)=O)NC[C@H](N)C(N)=O)nc1C(=O)N[C@H](C(=O)N[C@H](C)[C@@H](O)[C@H](C)C(=O)N[C@H](C(=O)NCCc1nc(-c2nc(C(=O)NCCC[S+](C)C)cs2)cs1)[C@@H](C)O)[C@@H](OC1OC(CO)C(O)C(O)C1OC1OC(CO)C(O)C(OC(N)=O)C1O)c1cnc[nH]1 [BLEOMYCIN]; assay: surviving fraction relative to DMSO-only wells; higher = less growth inhibition; conditions: exposure time: 5 days
How it was run: (§1)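 At 250–500 cells per well in 384-well plates, log-phase tumour cell lines were seeded and, 24 hours on, exposed continuously for five days to inhibitors at 0.5, 1, 5, 10, 50, 100, 500 and 1000 nM. Viability readout was CellTiter-Glo luminescence, reported as surviving fraction normalised to the median of DMSO-only wells.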

AFIMOXIFENE = compound: CC/C(=C(\c1ccc(O)cc1)c1ccc(OCCN(C)C)cc1)c1ccccc1 [AFIMOXIFENE]; assay: as above; conditions: exposure time: 5 days
How it was run: as §1

Row | Test System | surviving fraction (BLEOMYCIN; 0.5 nM) | surviving fraction (BLEOMYCIN; 1 nM) | surviving fraction (BLEOMYCIN; 5 nM) | surviving fraction (BLEOMYCIN; 10 nM) | surviving fraction (BLEOMYCIN; 50 nM) | surviving fraction (BLEOMYCIN; 100 nM) | surviving fraction (BLEOMYCIN; 500 nM) | surviving fraction (BLEOMYCIN; 1000 nM) | surviving fraction (AFIMOXIFENE; 0.5 nM) | surviving fraction (AFIMOXIFENE; 1 nM) | surviving fraction (AFIMOXIFENE; 5 nM) | surviving fraction (AFIMOXIFENE; 10 nM) | surviving fraction (AFIMOXIFENE; 50 nM) | surviving fraction (AFIMOXIFENE; 100 nM) | surviving fraction (AFIMOXIFENE; 500 nM) | surviving fraction (AFIMOXIFENE; 1000 nM)
1 | JIMT1 BREAST | 0.823 ± 0.056 | 0.82 ± 0.043 | 0.842 ± 0.019 | 0.874 ± 0.048 | 0.952 ± 0.059 | 0.927 ± 0.028 | 0.825 ± 0.058 | 0.698 ± 0.059 | 1.01 ± 0.045 | 0.972 ± 0.026 | 1 ± 0.032 | 0.994 ± 0.048 | 1.08 ± 0.065 | 1.05 ± 0.066 | 1.04 ± 0.08 | 0.939 ± 0.024
2 | PCI30 HEADNECK | 0.917 ± 0.054 | 0.887 ± 0.054 | 0.942 ± 0.064 | 0.958 ± 0.04 | 0.655 ± 0.075 | 0.509 ± 0.048 | 0.32 ± 0.044 | 0.334 ± 0.033 | 1.09 ± 0.017 | 1.07 ± 0.062 | 1.07 ± 0.06 | 1.06 ± 0.023 | 1.12 ± 0.045 | 1.05 ± 0.022 | 0.99 ± 0.091 | 1.02 ± 0.032
3 | SAOS2 BONE | 0.8247 ± 0.0029 | 0.805 ± 0.068 | 0.856 ± 0.016 | 0.698 ± 0.11 | 0.968 ± 0.024 | 0.904 ± 0.063 | 0.685 ± 0.034 | 0.462 ± 0.054 | 1.18 ± 0.064 | 1.14 ± 0.068 | 1.23 ± 0.051 | 1.18 ± 0.052 | 1.21 ± 0.034 | 1.2 ± 0.16 | 1.12 ± 0.14 | 0.985 ± 0.042
4 | MDAMB157 BREAST | 0.89 ± 0.033 | 0.915 ± 0.045 | 0.788 ± 0.033 | 0.863 ± 0.025 | 0.815 ± 0.047 | 0.736 ± 0.07 | 0.476 ± 0.016 | 0.288 ± 0.056 | 1.04 ± 0.05 | 1.01 ± 0.062 | 1.04 ± 0.14 | 1.02 ± 0.072 | 1.06 ± 0.022 | 1.01 ± 0.014 | 0.942 ± 0.059 | 0.989 ± 0.12
5 | U2OS BONE | 0.904 ± 0.028 | 0.942 ± 0.05 | 0.933 ± 0.04 | 0.9 ± 0.039 | 1.01 ± 0.023 | 0.8983 ± 0.0064 | 0.734 ± 0.017 | 0.617 ± 0.011 | 1.06 ± 0.056 | 1.07 ± 0.035 | 1.08 ± 0.024 | 1.1 ± 0.022 | 1.12 ± 0.015 | 1.1 ± 0.017 | 1.08 ± 0.057 | 1.01 ± 0.021
6 | 22RV1 PROSTATE | 0.962 ± 0.044 | 0.979 ± 0.053 | 0.962 ± 0.029 | 0.887 ± 0.026 | 0.922 ± 0.0089 | 0.886 ± 0.051 | 0.738 ± 0.032 | 0.573 ± 0.088 | 1.06 ± 0.088 | 1.04 ± 0.089 | 1.09 ± 0.054 | 1.09 ± 0.016 | 1.1 ± 0.048 | 1.06 ± 0.08 | 1.13 ± 0.056 | 1.04 ± 0.079
7 | HCC1954 BREAST | 0.4128 ± 0.0025 | 0.433 ± 0.01 | 0.42 ± 0.043 | 0.456 ± 0.0085 | 0.467 ± 0.037 | 0.415 ± 0.064 | 0.364 ± 0.061 | 0.417 ± 0.01 | 1.01 ± 0.15 | 1 ± 0.0018 | 1.31 ± 0.18 | 1.33 ± 0.1 | 0.9337 ± 0.0067 | 1.02 ± 0.056 | 0.973 ± 0.1 | 0.883 ± 0.12
8 | HCC202 BREAST | 1.13 ± 0.17 | 1.18 ± 0.095 | 1.09 ± 0.49 | 1.02 ± 0.14 | 1.1 ± 0.11 | 0.992 ± 0.17 | 0.862 ± 0.25 | 0.738 ± 0.1 | 1.15 ± 0.4 | 1.2 ± 0.061 | 1.53 ± 0.67 | 1.19 ± 0.14 | 1.03 ± 0.083 | 1.17 ± 0.17 | 0.881 ± 0.29 | 1.13 ± 0.51
9 | SCC90 HEADNECK | 0.933 ± 0.085 | 0.929 ± 0.061 | 0.94 ± 0.082 | 0.946 ± 0.018 | 1.06 ± 0.089 | 1.03 ± 0.085 | 0.885 ± 0.11 | 0.783 ± 0.044 | 1.14 ± 0.052 | 1.12 ± 0.11 | 1.1 ± 0.045 | 1.19 ± 0.068 | 1.12 ± 0.074 | 1.09 ± 0.059 | 1.11 ± 0.025 | 1.05 ± 0.075
10 | NOS1 BONE | 0.877 ± 0.087 | 0.841 ± 0.063 | 0.795 ± 0.04 | 0.782 ± 0.14 | 1.02 ± 0.33 | 0.863 ± 0.038 | 0.557 ± 0.046 | 0.656 ± 0.25 | 1.05 ± 0.094 | 1.16 ± 0.28 | 1.18 ± 0.08 | 1.27 ± 0.12 | 1.4 ± 0.15 | 1.21 ± 0.076 | 1.08 ± 0.072 | 0.973 ± 0.19
11 | OS25HAL BONE | 0.885 ± 0.027 | 0.8967 ± 0.0078 | 0.924 ± 0.026 | 0.894 ± 0.027 | 0.936 ± 0.011 | 0.895 ± 0.058 | 0.511 ± 0.048 | 0.286 ± 0.004 | 1.02 ± 0.036 | 1.04 ± 0.029 | 1.04 ± 0.014 | 1.02 ± 0.051 | 1.18 ± 0.044 | 1.09 ± 0.021 | 1.04 ± 0.084 | 1.04 ± 0.043
12 | SCC47 HEADNECK | 0.907 ± 0.031 | 0.909 ± 0.046 | 0.917 ± 0.038 | 0.9 ± 0.019 | 0.843 ± 0.026 | 0.677 ± 0.047 | 0.466 ± 0.057 | 0.436 ± 0.035 | 1.26 ± 0.02 | 1.2 ± 0.038 | 1.31 ± 0.11 | 1.27 ± 0.13 | 1.31 ± 0.085 | 1.29 ± 0.12 | 1.24 ± 0.047 | 1.2 ± 0.055
13 | BT549 BREAST | 0.82 ± 0.091 | 0.818 ± 0.16 | 0.637 ± 0.1 | 0.599 ± 0.11 | 0.421 ± 0.053 | 0.304 ± 0.053 | 0.121 ± 0.011 | 0.122 ± 0.048 | 0.924 ± 0.072 | 1.01 ± 0.1 | 1.01 ± 0.12 | 0.926 ± 0.082 | 0.93 ± 0.046 | 1.04 ± 0.013 | 1.07 ± 0.14 | 0.865 ± 0.052
14 | 93VU HEADNECK | 0.8 ± 0.006 | 0.83 ± 0.058 | 0.785 ± 0.011 | 0.783 ± 0.015 | 0.764 ± 0.058 | 0.633 ± 0.023 | 0.386 ± 0.025 | 0.327 ± 0.066 | 1.25 ± 0.11 | 1.2 ± 0.11 | 1.34 ± 0.074 | 1.32 ± 0.075 | 1.27 ± 0.053 | 1.2 ± 0.1 | 1.24 ± 0.12 | 1.08 ± 0.068
15 | NCIH441 LUNG | 0.956 ± 0.093 | 1.01 ± 0.05 | 0.919 ± 0.045 | 0.887 ± 0.063 | 0.838 ± 0.066 | 0.857 ± 0.015 | 0.762 ± 0.017 | 0.52 ± 0.028 | 1.06 ± 0.11 | 1.07 ± 0.12 | 1.04 ± 0.11 | 1.12 ± 0.12 | 1.08 ± 0.11 | 1.14 ± 0.024 | 1.23 ± 0.03 | 1.03 ± 0.13
16 | SUM159 BREAST | 1.07 ± 0.18 | 1.02 ± 0.094 | 1.01 ± 0.082 | 0.999 ± 0.086 | 0.948 ± 0.034 | 0.908 ± 0.031 | 0.673 ± 0.13 | 0.246 ± 0.065 | 1.12 ± 0.024 | 1.12 ± 0.028 | 1.12 ± 0.026 | 1.11 ± 0.013 | 1.09 ± 0.025 | 1.13 ± 0.023 | 1.114 ± 0.01 | 1.06 ± 0.016
17 | SJSA1 BONE | 0.855 ± 0.056 | 0.861 ± 0.079 | 0.839 ± 0.026 | 0.773 ± 0.011 | 0.654 ± 0.029 | 0.504 ± 0.025 | 0.481 ± 0.029 | 0.44 ± 0.024 | 1.6 ± 0.021 | 1.74 ± 0.059 | 1.65 ± 0.083 | 1.74 ± 0.087 | 1.78 ± 0.027 | 1.52 ± 0.05 | 1.79 ± 0.059 | 1.27 ± 0.068
18 | MDAMB231 BREAST | 0.961 ± 0.017 | 0.958 ± 0.018 | 0.978 ± 0.014 | 0.935 ± 0.019 | 0.887 ± 0.028 | 0.845 ± 0.021 | 0.642 ± 0.029 | 0.504 ± 0.01 | 0.987 ± 0.017 | 1.01 ± 0.032 | 1.01 ± 0.045 | 1.01 ± 0.023 | 1.02 ± 0.024 | 1.02 ± 0.018 | 1.01 ± 0.024 | 0.955 ± 0.035
19 | CME SYNOVIAL | 0.718 ± 0.14 | 0.749 ± 0.16 | 0.742 ± 0.12 | 0.513 ± 0.081 | 0.265 ± 0.021 | 0.293 ± 0.036 | 0.211 ± 0.0078 | 0.203 ± 0.0091 | 1.26 ± 0.1 | 1.31 ± 0.15 | 1.42 ± 0.13 | 1.46 ± 0.13 | 1.41 ± 0.13 | 1.43 ± 0.1 | 1.28 ± 0.085 | 1.4 ± 0.053
20 | T47D BREAST | 0.947 ± 0.019 | 0.915 ± 0.011 | 0.891 ± 0.02 | 0.9369 ± 0.0063 | 0.951 ± 0.02 | 0.923 ± 0.039 | 0.693 ± 0.011 | 0.57 ± 0.03 | 1.06 ± 0.052 | 1.11 ± 0.032 | 0.955 ± 0.0067 | 0.98 ± 0.048 | 0.95 ± 0.032 | 0.958 ± 0.034 | 0.888 ± 0.024 | 0.883 ± 0.037
